PubChem BioAssay (NCI)
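The compound was tested at five concentrations on cells cultured in 96-well plates, with a 48-hour exposure period. TGI is the concentration that stops growth completely.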

Columns and labels:
Experiment in all cases: NCI tumour cell line growth inhibition, 48 h
UACC-62 melanoma = tested on: UACC-62 melanoma
SK-MEL-28 melanoma = tested on: SK-MEL-28 melanoma
U251 CNS = tested on: U251 CNS
MDA-N = tested on: MDA-N
T-47D breast = tested on: T-47D breast
SNB-19 CNS = tested on: SNB-19 CNS
A498 renal = tested on: A498 renal
KM12 colon = tested on: KM12 colon
HL-60(TB) leukemia = tested on: HL-60(TB) leukemia
NCI-H460 lung = tested on: NCI-H460 lung

Compound	TGI (UACC-62 melanoma)	TGI (SK-MEL-28 melanoma)	TGI (U251 CNS)	TGI (MDA-N)	TGI (T-47D breast)	TGI (SNB-19 CNS)	TGI (A498 renal)	TGI (KM12 colon)	TGI (HL-60(TB) leukemia)	TGI (NCI-H460 lung)
c1ccc(COc2ncccc2C2SCCCS2)cc1	> 100 µM	> 100 µM	> 100 µM	> 100 µM	> 100 µM	> 100 µM	> 100 µM	> 100 µM	–	–
C=C1C(=O)C[C@@]23CCC[C@@]12CC(O)C3 (stereo not given in full)	30.9 µM	49.8 µM	> 100 µM	–	–	> 100 µM	> 48.9 µM	51.3 µM	49.9 µM	54.1 µM
OCc1ccccc1OC1OC(CO)C(O)C(O)C1O (stereo not given)	> 100 µM	> 100 µM	> 100 µM	> 100 µM	> 100 µM	–	> 100 µM	> 100 µM	> 100 µM	> 100 µM
COC1(OC)N=C(N)C2(C#N)/C(=N/N(C)C)CC(C)C12C#N (stereo not given)	> 100 µM	> 100 µM	> 100 µM	> 100 µM	> 100 µM	> 100 µM	> 100 µM	> 100 µM	> 100 µM	–
COC(=O)CNC(=O)/C=C/[C@H](O[Si](C)(C)C(C)(C)C)[C@H](/C=C/C(=O)NCC(=O)OC)O[Si](C)(C)C(C)(C)C	> 25 µM	> 25 µM	> 25 µM	> 25 µM	> 25 µM	> 25 µM	> 25 µM	> 25 µM	–	> 25 µM
CNC(=O)OCC1=C(COC(=O)NC)CN(c2ccccc2)C1	> 100 µM	> 100 µM	> 100 µM	> 100 µM	> 100 µM	> 100 µM	> 100 µM	> 100 µM	–	> 100 µM
CC(=O)OCC1OC(n2c3c(c(-c4ccco4)c(C#N)c2=S)CCCC3)C(OC(C)=O)C(OC(C)=O)C1OC(C)=O (stereo not given)	–	> 31.6 µM	–	> 31.6 µM	> 31.6 µM	26.2 µM	22.1 µM	> 31.6 µM	–	> 31.6 µM
COC(=O)CCc1ccc2c(c1)CC1(C2)Cc2ccc(CCC(=O)OC)cc2C1	> 100 µM	–	> 100 µM	> 100 µM	> 100 µM	–	> 100 µM	> 100 µM	38.7 µM	–
C=C1c2nc3ccccc3n2C=C(c2ccccc2)N1c1ccc(OC)cc1	62.2 µM	–	> 100 µM	> 100 µM	–	–	> 100 µM	24.3 µM	> 100 µM	24 µM
COc1cc2cc3c4c(cc(OC)c(OC)c4c2cc1OC)CCN3C(=O)OCCBr	> 100 µM	> 100 µM	> 100 µM	–	–	> 100 µM	> 100 µM	> 100 µM	> 100 µM	> 100 µM
Cc1ccc(Nc2nnc3n2S(=O)(=O)c2cc(C)c(Cl)cc2S3)cc1	–	> 100 µM	59.2 µM	4.33 µM	> 100 µM	–	89.2 µM	> 100 µM	9.33 µM	> 100 µM
COc1cc2c(c(OC)c1OC)-c1ccc(SC)c(=O)cc1[C@@H](NC(=O)c1ccc(C#N)cc1)CC2	> 100 µM	> 100 µM	< 0.0316 µM	–	–	–	–	–	–	< 0.01 µM
CCN(CC)c1ccc(C(=C2C=CC(=[N+](CC)CC)C=C2)c2ccccc2)cc1	0.231 µM	0.351 µM	0.112 µM	–	–	0.179 µM	–	0.124 µM	0.0318 µM	–
COc1cc([C@@H]2c3cc4c(cc3[C@@H](Nc3ccc(Cl)cc3C(=O)c3ccccc3Cl)[C@H]3COC(=O)[C@H]23)OCO4)cc(OC)c1OC	> 72.4 µM	34 µM	0.364 µM	–	> 100 µM	76.1 µM	–	0.289 µM	–	–
Clc1ncc(C(Cl)(Cl)Cl)nc1-c1ccccc1	7.27 µM	60.6 µM	3.3 µM	3.82 µM	4.1 µM	3.19 µM	–	3.43 µM	6.41 µM	11.3 µM
CCCCCCCC(CC(=O)O)OC(=O)CC(CCCCCCC)OC1OC(C)C(O)C(O)C1OC1OC(C)C(O)C(O)C1O (stereo not given)	> 100 µM	> 100 µM	> 100 µM	> 100 µM	> 100 µM	> 100 µM	> 100 µM	> 100 µM	–	> 100 µM
COc1ccc(C[C@H]2COC(=O)[C@@H]2Cc2cc(OC)c(OC)c(OC)c2)cc1OC	> 100 µM	> 100 µM	> 100 µM	> 100 µM	> 65.2 µM	> 100 µM	–	> 100 µM	> 100 µM	> 100 µM
COC1(OC)/C(=C(\N)C=O)NC(C)(C)N1O	> 100 µM	> 100 µM	> 100 µM	> 100 µM	–	> 100 µM	> 100 µM	> 100 µM	55.9 µM	> 100 µM
CCOc1ccc(NC(=S)/N=C/C(C(=O)Nc2ccccc2C)=C(\C)O)cc1	> 100 µM	–	> 100 µM	> 100 µM	> 100 µM	> 100 µM	–	> 100 µM	> 100 µM	> 100 µM
COC(=O)C1(Cc2ccccc2)Cc2ccccc2C1=O (stereo not given)	> 100 µM	> 100 µM	85.9 µM	94.6 µM	> 100 µM	–	–	> 100 µM	51.1 µM	> 100 µM
CCOc1cc(C=O)ccc1O	–	> 100 µM	> 100 µM	> 100 µM	> 100 µM	> 100 µM	–	> 100 µM	> 100 µM	> 100 µM
Cc1c(-c2coc(-c3ccc(Cl)cc3)n2)c(=O)n(-c2ccccc2)n1C	> 100 µM	> 100 µM	> 100 µM	–	–	–	> 100 µM	> 100 µM	> 100 µM	> 100 µM
CCC1(O)CN(CCOC)[C@H]2C[C@@H]1C(=O)c1[nH]c3ccccc3c12 (stereo not given in full)	–	> 100 µM	> 100 µM	> 100 µM	–	> 100 µM	> 100 µM	> 100 µM	> 100 µM	> 100 µM
